Earlier results as cited in patent US20230323509A1, “Weak Acid Lixiviants for Recovery of Alkaline Earth Metals” (LIXIVIA, INC., priority 2020, published 2023).
Read-outs that look alike come from different tables or passages of the source.

[1] = acid listed without dissociation step index

For `CCC(=O)C(=O)O` [2-oxobutanoic acid], which pKa [1] is on record?
The pKa was 2.5.

Which pKa [1] does the source give for `O=c1[nH]c(=O)c2[nH]c(=O)[nH]c2[nH]1` [uric acid] here?
Its pKa is 3.89.

For `CCCCC(=O)O` [pentanoic acid], which pKa [1] is on record?
Its pKa is 4.83.

With `CC(C(=O)O)C(=O)O` [methylmalonic acid] as the molecule, how does the pKa (dissociation step (1)) read?
Its pKa is 3.07.

Which results are given for `CC(CC(=O)O)C(=O)O` (stereo not shown) [methylsuccinic acid]?
pKa (dissociation step (1)): 4.13; pKa (dissociation step (2)): 5.64

For `O=C(O)CCCC(=O)O` [glutaric acid], which pKa (dissociation step (1)) is on record?
The pKa was 4.32.

And the pKa (dissociation step (2))?
The pKa was 5.42.

Which pKa [1] does the source give for `CCOCC(=O)O` [ethoxyacetic acid] here?
The pKa was 3.65.

For `CC#CC(=O)O` [2-butynoic acid], which pKa [1] is on record?
The pKa was 2.62.

With `CC(O)CC(=O)O` (stereo not shown) [3-hydoxybutanoic acid] as the molecule, how does the pKa [1] read?
Its pKa is 4.7.

Which results are given for `O=C(O)CC(=O)C(=O)O` [oxaloacetic acid]?
pKa (dissociation step (1)): 2.55; pKa (dissociation step (2)): 4.37
